From PMC10488193, “Evaluation of the Chemical Stability, Membrane Permeability and Antiproliferative Activity of Cyclic Diarylheptanoids from European Hornbeam (Carpinus betulus L.)” (International Journal of Molecular Sciences, 2023)
“And” between values parts separate entries of the source, which are not always exact repeats. Equal values may be shown once. “Also recorded” adds a separate entry of the source. Read-outs that look alike come from different tables or passages of the source. Marks after values point to notes of the source that are not given here.

Assays:
[1] = Aqueous stability at biorelevant pH values, 37 °C (UHPLC-DAD); format: physicochemical; settings: for half-life at 100 µM / degradation rate constant k: first-order; for half-life at 100 µM: read-out: half-life t1/2 (converted); for aqueous stability at pH 1.2, 6.8, 7.4 (in words): 37 °C, up to 81 h
Experimental: For the analysis of the samples from the chemical stability as well as the PAMPA studies, sample concentrations were determined using our previously developed ultrahigh-performance liquid chromatography–diode array detection (UHPLC-DAD) method validated for linearity, precision and accuracy. Briefly, an ACQUITY UPLC H-Class PLUS System hyphenated with a quaternary solvent delivery pump (QSM), an auto-sampler manager (FTN), a column compartment (CM) and a photodiode array (PDA) detector (Waters Corporation) was employed. Stationary phase: Acquity BEH C18 column (100 × 2.1 mm i.d., 1.7 µm; Waters Corporation), column temperature: 30 °C. The mobile phase consisted of 0.3% acetic acid in water (eluent A) and acetonitrile (eluent B). The following gradient elution was applied at a flow rate of 0.3 mL/min: 0 min 12.0% B, 19.0 min 13.5% B, 25.5 min 75.0% B, 26.0 min 100.0% B, 28.0 min 100.0% B, 28.5 min 12.0% B.
The buffers modelling the gastric fluid (pH 1.2), the intestinal fluid (pH 6.8) and the blood and the tissues (pH 7.4) were prepared as follows. Buffer pH = 1.2: 1.0 g NaCl and 3.5 mL HCl dissolved in distilled water, final volume: 500.0 mL. Buffer pH = 6.8: 20.2 g Na2HPO4∙7H2O and 3.4 g NaH2PO4∙H2O dissolved in distilled water, final volume: 1000.0 mL, pH adjustment with 0.5 M NaOH or 0.5 M HCl. Buffer pH = 7.4: one PBS tablet dissolved in 200.0 mL distilled water. The stock solutions of compounds 1–4 were prepared with dimethyl sulfoxide (DMSO) at a concentration of 10.0 mM. The stock solutions were diluted 100-fold with each buffer separately to obtain the working solutions (297.0 μL buffer + 3.0 μL stock solution). All working solutions were filtered through Phenex-RC 15 mm, 0.2 μm syringe filters (Gen-Lab Ltd., Budapest, Hungary). The samples were incubated for 81 h at 37 °C; aliquots were taken for analysis every 9 h in accordance with the time required to quantify the analytes of interest in one set of samples. The total incubation time of 81 h was applied to obtain data for ten measurement points. The previously described UHPLC-DAD method was used to examine the changes in compound concentrations (see Section 3.4).
For the determination of pH stability, the initial AUC values were compared with the data after 9 and 81 h using paired-sample t test; significant difference was reported at p < 0.05. The effects of the pH were analysed through one-way analysis of variance (ANOVA) followed by Tukey’s post hoc HSD test (p < 0.05). All experiments were performed in triplicates (n = 3).
We used the following equations to calculate the first-order reaction rate constant (k) and the half-life (t1/2) indicating the time required to reduce the concentration of diarylheptanoids by 50% [29]:ln (ct/c0) = −k × t(1) t1/2 = −ln 0.5 × k^−1(2) where ct is the concentration of the diarylheptanoids at time t, c0 is the initial concentration, k is the reaction rate constant, t is the treatment time.

[2] = PAMPA-GI; format: in vitro ADME; settings: for Papp at 4 h, 100 µM: PAMPA, read-out: logPe PAMPA-GI (n = 9) (converted)
Experimental: A parallel artificial membrane permeability assay (PAMPA) was used to determine the effective permeability (Pe) for the Carpinus diarylheptanoids. Stock solutions of the isolated compounds (10 mM in DMSO) were diluted with the defined buffer (pH 7.4 for the PAMPA-BBB and pH 6.8 for the PAMPA-GI assays) to obtain the donor solutions (composition: 297.0 μL buffer + 3.0 μL stock solution). Donor solutions were filtered through Phenex-RC 15 mm, 0.2 μm syringe filters (Gen-Lab Ltd., Budapest, Hungary).
For the PAMPA-BBB test, 5 μL of porcine polar brain lipid extract (PBLE) solution (16.0 mg PBLE + 8.0 mg cholesterol dissolved in 600.0 μL n-dodecane) was applied for each well of the 96-well polycarbonate-based filter donor plates (top plate) (Multiscreen™-IP, MAIPN4510, pore size 0.45 μm; Merck). For the PAMPA-GI assay, the wells of the top plate were coated with 5 μL of the mixture of 8.0 mg phosphatidylcholine + 4.0 mg cholesterol dissolved in 300.0 μL n-dodecane. The 150.0 μL aliquots of the filtrated donor solutions were placed on the membrane. The 96-well PTFE acceptor plates (bottom plates) (Multiscreen Acceptor Plate, MSSACCEPTOR; Merck), were filled with 300.0 μL buffer solution (0.01 M PBS buffer, pH 7.4). […]
After the incubation, the plates were separated and the compound concentrations in the donor (CD(t)) and acceptor (CA(t)) solutions were determined using the aforementioned UHPLC-DAD method (see Section 3.4). […] The effective permeability and the membrane retention in the PAMPA-BBB and the PAMPA GI experiments were calculated by Equations (3) and (4), respectively:(3) Pe=−2.303/A(t−τSS)·VA·VD/VA+VD·lg1−VA+VD/1−MR·VD×CAt/CD0 (4) Pe=−2.303/A(t−τSS))·1/1+ra·lg−ra+1+ra/1−MR×CDt/CD0 where Pe is the effective permeability coefficient (cm/s), A is the filter area (0.24 cm^2), VD and VA are the volumes in the donor (0.15 cm^3) and acceptor phases (0.30 cm^3), t is the incubation time (s), τSS is the time (s) to reach steady state (240 s), CD(t) is the concentration (mol/cm^3) of the compound in the donor phase at time t, CD(0) is the concentration (mol/cm^3) of the compound in the donor phase at time 0, MR is the estimated membrane retention factor (the estimated mole fraction of solute lost to the membrane) and ra is the sink asymmetry ratio (gradient-pH-induced), defined as:(5) ra=VD/VA×Pe(A→D)/Pe(D→A) (6) MR=1−CDt/CD0−VA/VDCAt/CD0
All experiments were performed in three triplicates on three consecutive days (n = 9); caffeine standard was used as positive, while rutin was used as negative control. Clog P values were calculated using ACD/ChemSketch (Freeware) 2 January 2020 (Advanced Chemistry Development, Inc., Toronto, ON, Canada).

[3] = set-up: method as in PMID 12350169; settings: cited from earlier work
[4] = sodium phosphate buffer, pH 6.8, 37 °C

relative concentration compared to the initial value ([1]; 9 h, pH 1.2, 37 °C)	relative concentration compared to the initial value ([1]; 9 h, pH 6.8, 37 °C)	relative concentration compared to the initial value ([1]; 9 h, pH 7.4, 37 °C)	relative concentration compared to the initial value ([1]; 81 h, pH 1.2, 37 °C)	relative concentration compared to the initial value ([1]; 81 h, pH 6.8, 37 °C)	relative concentration compared to the initial value ([1]; 81 h, pH 7.4, 37 °C)	half-life at 100 µM ([1]; NaCl/HCl buffer, pH 1.2, 37 °C) [h]	degradation rate constant k ([1]; pH 1.2, 37 °C) [h⁻¹]	degradation rate constant k ([1]; pH 6.8, 37 °C) [h⁻¹]	half-life at 100 µM [1, 4] [h]	Papp at 4 h, 100 µM [2] [×10⁻⁶ cm/s]	logPe PAMPA-GI (n = 9) ([2]; donor pH 6.8, acceptor pH 7.4, 37 °C, 4 h, Pe in cm/s, n.d. = not detected in the acceptor phase)	SMILES	half-life at 100 µM ([1]; PBS, pH 7.4, 37 °C) [h]	degradation rate constant k ([1]; pH 7.4, 37 °C) [h⁻¹]	antioxidant activity (in words) [3]	aqueous stability at pH 1.2, 6.8, 7.4 (in words) [1]
101.7 ± 4.2 ^a %	105.2 ± 3.9 ^a %	102.0 ± 0.9 ^a %	100.7 ± 5.1 ^a %	101.9 ± 6.4 ^a %	101.5 ± 1.1 ^a %					3.47		O=C1CCc2ccc(O)c(c2)-c2cc(ccc2O)C[C@H](O)[C@H](O)[C@H]1O [Compound 2, carpinontriol B]			only weak antioxidant activity	remained intact for the whole study at all pH values; also recorded: stable at all three studied biorelevant pH values
100.6 ± 6.9 ^a %	98.9 ± 0.8 ^a %	82.6 ± 7.7 ^#b %	83.4 ± 5.3% and 83.4 ± 5.3 ^#b %	93.2 ± 2.0% and 93.2 ± 2.0 ^#ab %	46.7 ± 4.7 %	298	0.00232	0.000838	827	6.03		O=C1CCc2ccc(O)c(c2)-c2cc(ccc2O)C[C@@H](O)[C@H](O)C1 [Compound 3, giffonin X]	81.6	0.00849		
68.5 ± 4.5%	105.8 ± 2.6 ^a %	102.0 ± 3.7 ^a %	31.0 ± 7.0%	88.9 ± 2.0%	103.1 ± 2.2 ^a %	54.4	0.0127	0.00142	488		not detected in the acceptor phase	O=C1CCC(=O)C(O)Cc2ccc(O)c(c2)-c2cc(ccc2O)C1 (stereo not drawn) [Compound 4, 3,12,17-trihydroxytricyclo [12.3.1.1^2,6]nonadeca-1(18),2(19),3,5,14,16-hexaene-8,11-dione]				stable only at pH 7.4

SMILES	relative concentration compared to the initial value ([1]; 9 h, pH 1.2, 37 °C)	relative concentration compared to the initial value ([1]; 9 h, pH 6.8, 37 °C)	relative concentration compared to the initial value ([1]; 9 h, pH 7.4, 37 °C)	relative concentration compared to the initial value ([1]; 81 h, pH 1.2, 37 °C)	relative concentration compared to the initial value ([1]; 81 h, pH 6.8, 37 °C)	relative concentration compared to the initial value ([1]; 81 h, pH 7.4, 37 °C)	half-life at 100 µM ([1]; NaCl/HCl buffer, pH 1.2, 37 °C) [h]	degradation rate constant k ([1]; pH 1.2, 37 °C) [h⁻¹]	degradation rate constant k ([1]; pH 6.8, 37 °C) [h⁻¹]	half-life at 100 µM [1, 4] [h]	Papp at 4 h, 100 µM [2] [×10⁻⁶ cm/s]	logPe PAMPA-GI (n = 9) ([2]; donor pH 6.8, acceptor pH 7.4, 37 °C, 4 h, Pe in cm/s, n.d. = not detected in the acceptor phase)	half-life at 100 µM ([1]; PBS, pH 7.4, 37 °C) [h]	degradation rate constant k ([1]; pH 7.4, 37 °C) [h⁻¹]	antioxidant activity (in words) [3]	aqueous stability at pH 1.2, 6.8, 7.4 (in words) [1]
O=C1C[C@H](O)[C@@H](O)Cc2ccc(O)c(c2)-c2cc(ccc2O)C[C@H]1O [Compound 1, carpinontriol A]	97.1 ± 8.9 ^a %	97.4 ± 1.5% and 97.4 ± 1.5 ^#a %	96.9 ± 1.2 ^a %	70.5 ± 2.6% and 70.5 ± 2.6 ^#b %	75.3 ± 3.0% and 75.3 ± 3.0 ^#b %	71.5 ± 5.2% and 71.5 ± 5.2 ^#b %	167	0.00415	0.00365	190	0.562		166	0.00419	only weak antioxidant activity	
